This passage reports inhibition and IC50 results from patent publication US20230114153A1, “IMIDAZOLYL THIOPEHENE SULFONYL CARBAMATES FOR USE IN THE TREATMENT OF DISEASES ASSOCIATED WITH ANGIOTENSIN II” (Vicore Pharma AB, priority 2020, published 2023).

The target in one data set is T1, CYP1A (Homo sapiens, UniProt P05177).
T1 construct: incubated with human liver microsomes; tissue Eurofins (contract protocol) ITEMG232; host or cells: human liver microsomes
T1 sequence (P05177 1-516): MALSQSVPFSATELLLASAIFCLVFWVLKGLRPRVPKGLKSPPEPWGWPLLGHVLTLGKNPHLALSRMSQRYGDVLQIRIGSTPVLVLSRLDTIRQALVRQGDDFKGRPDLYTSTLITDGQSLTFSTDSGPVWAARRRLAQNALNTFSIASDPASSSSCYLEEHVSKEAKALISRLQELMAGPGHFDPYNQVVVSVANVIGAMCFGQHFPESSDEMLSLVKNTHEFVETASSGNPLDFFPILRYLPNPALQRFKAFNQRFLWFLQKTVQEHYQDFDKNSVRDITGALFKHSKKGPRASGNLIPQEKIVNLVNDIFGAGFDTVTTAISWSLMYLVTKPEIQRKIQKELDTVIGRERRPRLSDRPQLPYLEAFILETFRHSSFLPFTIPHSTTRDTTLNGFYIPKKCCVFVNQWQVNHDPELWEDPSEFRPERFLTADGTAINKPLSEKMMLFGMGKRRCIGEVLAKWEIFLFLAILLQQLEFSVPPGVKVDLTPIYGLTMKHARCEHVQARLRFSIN
Put plainly: CYP inhibition in human liver microsomes, CYP1A. The format is in vitro ADME. Particulars: probe phenacetin, substrate phenacetin, read-out: CYP1A Inh %. On the procedure: (§1) The following substrates were used; CYP1A phenacetin, CYP2B6 bupropion, CYP2C8 paclitaxel and amodiaquine, CYP2C9 diclofenac, CYP2C19 omeprazole, CYP2D6 dextromethorphan, CYP3A midazolam and testosterone. At the end of the incubation, the formation of metabolite was monitored by HPLC-MS/MS as the peak area response.

The target of a further data set is T2, CYP2B6 (Homo sapiens, UniProt P20813).
T2 construct: incubated with human liver microsomes; tissue Eurofins (contract protocol) ITEMG232; host or cells: human liver microsomes
T2 sequence (P20813 1-491): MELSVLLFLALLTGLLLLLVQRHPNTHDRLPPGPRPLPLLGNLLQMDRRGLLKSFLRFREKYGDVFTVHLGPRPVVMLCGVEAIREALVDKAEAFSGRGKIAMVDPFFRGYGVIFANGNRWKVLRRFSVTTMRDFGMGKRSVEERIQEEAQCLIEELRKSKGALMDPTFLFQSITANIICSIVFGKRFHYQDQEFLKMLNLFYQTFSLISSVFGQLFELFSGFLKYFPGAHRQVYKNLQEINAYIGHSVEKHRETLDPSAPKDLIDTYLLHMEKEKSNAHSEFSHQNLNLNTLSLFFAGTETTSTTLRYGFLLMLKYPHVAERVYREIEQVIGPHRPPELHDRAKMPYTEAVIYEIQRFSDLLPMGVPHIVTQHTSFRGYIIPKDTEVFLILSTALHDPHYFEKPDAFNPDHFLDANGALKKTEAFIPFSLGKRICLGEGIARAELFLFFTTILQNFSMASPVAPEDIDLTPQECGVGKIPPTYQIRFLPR
Put plainly: CYP inhibition in human liver microsomes, CYP2B6. It counts as in vitro ADME. Particulars: probe bupropion, substrate bupropion, read-out: CYP2B6 Inh %. On the procedure: as §1
For orientation: Microsomes from liver hold many membrane-bound enzymes, among them those of drug oxidation.

A further data set addresses T3, CYP2C8 (Homo sapiens, UniProt P10632).
T3 construct: incubated with human liver microsomes; tissue Eurofins (contract protocol) ITEMG232; host or cells: human liver microsomes
T3 sequence (P10632 1-490): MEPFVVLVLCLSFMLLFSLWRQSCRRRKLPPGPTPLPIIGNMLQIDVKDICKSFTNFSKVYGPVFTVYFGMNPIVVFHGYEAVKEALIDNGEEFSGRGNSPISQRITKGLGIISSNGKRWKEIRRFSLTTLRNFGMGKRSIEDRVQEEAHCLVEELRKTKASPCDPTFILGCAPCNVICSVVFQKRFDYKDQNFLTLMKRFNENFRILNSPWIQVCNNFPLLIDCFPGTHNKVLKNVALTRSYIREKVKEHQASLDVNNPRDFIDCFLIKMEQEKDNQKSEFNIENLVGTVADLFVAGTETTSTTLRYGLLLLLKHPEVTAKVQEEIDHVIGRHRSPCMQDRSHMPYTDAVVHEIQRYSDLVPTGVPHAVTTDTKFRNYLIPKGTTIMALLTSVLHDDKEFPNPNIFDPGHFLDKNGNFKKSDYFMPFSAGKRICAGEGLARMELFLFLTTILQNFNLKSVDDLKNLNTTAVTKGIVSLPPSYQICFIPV
Put plainly: CYP inhibition in human liver microsomes, CYP2C8. The format is in vitro ADME. Particulars: probe paclitaxel and amodiaquine, substrates paclitaxel and amodiaquine, read-out: CYP2C8 Inh %. As to the method:
as §1

The next data set deals with T4, CYP2D6 (Homo sapiens, UniProt P10635).
T4 construct: incubated with human liver microsomes; tissue Eurofins (contract protocol) ITEMG232; host or cells: human liver microsomes
In words: CYP inhibition in human liver microsomes, CYP2D6. Particulars: probe dextromethorphan, substrate dextromethorphan, read-out: CYP2D6 Inh %. It counts as in vitro ADME. On the procedure:
as §1

In another data set the target is T5, CYP3A4 (Homo sapiens, UniProt P08684).
T5 construct: incubated with human liver microsomes; tissue Eurofins (contract protocol) ITEMG232; host or cells: human liver microsomes
In words: CYP inhibition in human liver microsomes, CYP3A4 (midazolam). It counts as in vitro ADME. Particulars: probe midazolam, substrate midazolam, read-out: CYP3A4 midazolam Inh %. On the procedure:
as §1

For a further data set, the system named is CYP3A4&5. In words: CYP inhibition in human liver microsomes, CYP3A4&5 (testosterone). Particulars: probe testosterone, substrate testosterone, read-out: CYP3A4&5 testosterone Inh %. It counts as in vitro ADME. As to the method:
as §1

The target in data set [1] is T6, human recombinant AT2 receptor (Homo sapiens, UniProt P50052).
T6 construct: Eurofins (contract protocol) ITEM26
T6 sequence (P50052 1-363): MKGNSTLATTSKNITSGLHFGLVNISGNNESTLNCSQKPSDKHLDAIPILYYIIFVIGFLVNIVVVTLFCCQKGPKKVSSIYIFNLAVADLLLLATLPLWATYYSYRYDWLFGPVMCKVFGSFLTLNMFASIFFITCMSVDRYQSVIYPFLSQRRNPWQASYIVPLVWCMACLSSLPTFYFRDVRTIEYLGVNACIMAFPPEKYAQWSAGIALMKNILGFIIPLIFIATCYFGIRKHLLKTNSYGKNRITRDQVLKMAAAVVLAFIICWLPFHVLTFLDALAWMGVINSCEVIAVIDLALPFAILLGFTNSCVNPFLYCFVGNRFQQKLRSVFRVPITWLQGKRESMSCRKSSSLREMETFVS
Put plainly: Binding to human recombinant AT2 receptor, radiometric scintillation assay (Eurofins ITEM26). Particulars: ligand 125I CGP 42112A, 2-4 h at 37° C., tested at 1, 10, 100 and 1000 nM.

The target in the next data set is T7, CYP2C19 (Homo sapiens, UniProt P33261).
T7 construct: incubated with human liver microsomes; tissue Eurofins (contract protocol) ITEMG232; host or cells: human liver microsomes
Put plainly: CYP inhibition in human liver microsomes, CYP2C19. The format is in vitro ADME. Particulars: probe omeprazole, substrate omeprazole, read-out: CYP2C19 Inh %. As to the method:
as §1

The target in a further data set is T8, CYP2C9 (Homo sapiens, UniProt P11712).
T8 construct: incubated with human liver microsomes; tissue Eurofins (contract protocol) ITEMG232; host or cells: human liver microsomes
In words: CYP inhibition in human liver microsomes, CYP2C9. Particulars: probe diclofenac, substrate diclofenac, read-out: CYP2C9 Inh %. The format is in vitro ADME. As to the method: as §1

T5 sequence (P08684 whole entry): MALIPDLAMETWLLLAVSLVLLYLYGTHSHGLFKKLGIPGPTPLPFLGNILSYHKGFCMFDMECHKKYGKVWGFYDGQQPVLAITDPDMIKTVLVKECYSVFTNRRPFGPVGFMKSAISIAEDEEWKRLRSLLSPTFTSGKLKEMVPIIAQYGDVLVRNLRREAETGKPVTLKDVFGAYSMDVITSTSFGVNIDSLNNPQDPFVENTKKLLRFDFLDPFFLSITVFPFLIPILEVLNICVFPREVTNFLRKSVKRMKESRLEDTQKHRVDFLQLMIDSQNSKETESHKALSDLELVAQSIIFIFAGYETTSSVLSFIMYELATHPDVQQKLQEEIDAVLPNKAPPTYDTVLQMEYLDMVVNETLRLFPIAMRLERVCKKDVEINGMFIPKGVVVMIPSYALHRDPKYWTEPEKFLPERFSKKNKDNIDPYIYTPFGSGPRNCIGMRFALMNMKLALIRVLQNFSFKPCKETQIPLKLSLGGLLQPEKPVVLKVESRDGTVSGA
T4 sequence (P10635 whole entry): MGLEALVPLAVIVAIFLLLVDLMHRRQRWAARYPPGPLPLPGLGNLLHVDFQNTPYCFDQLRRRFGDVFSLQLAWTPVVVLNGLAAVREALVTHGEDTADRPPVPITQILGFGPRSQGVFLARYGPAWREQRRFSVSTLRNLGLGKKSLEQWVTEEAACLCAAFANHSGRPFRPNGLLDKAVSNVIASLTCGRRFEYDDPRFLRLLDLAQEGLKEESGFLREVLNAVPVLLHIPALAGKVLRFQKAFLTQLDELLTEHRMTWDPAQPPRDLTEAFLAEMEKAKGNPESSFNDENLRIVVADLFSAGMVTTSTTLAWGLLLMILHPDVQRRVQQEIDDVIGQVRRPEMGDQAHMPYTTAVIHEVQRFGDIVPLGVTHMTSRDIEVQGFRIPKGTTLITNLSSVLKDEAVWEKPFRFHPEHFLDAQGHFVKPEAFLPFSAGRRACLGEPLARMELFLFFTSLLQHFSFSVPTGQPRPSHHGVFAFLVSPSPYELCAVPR
T8 sequence (P11712 whole entry): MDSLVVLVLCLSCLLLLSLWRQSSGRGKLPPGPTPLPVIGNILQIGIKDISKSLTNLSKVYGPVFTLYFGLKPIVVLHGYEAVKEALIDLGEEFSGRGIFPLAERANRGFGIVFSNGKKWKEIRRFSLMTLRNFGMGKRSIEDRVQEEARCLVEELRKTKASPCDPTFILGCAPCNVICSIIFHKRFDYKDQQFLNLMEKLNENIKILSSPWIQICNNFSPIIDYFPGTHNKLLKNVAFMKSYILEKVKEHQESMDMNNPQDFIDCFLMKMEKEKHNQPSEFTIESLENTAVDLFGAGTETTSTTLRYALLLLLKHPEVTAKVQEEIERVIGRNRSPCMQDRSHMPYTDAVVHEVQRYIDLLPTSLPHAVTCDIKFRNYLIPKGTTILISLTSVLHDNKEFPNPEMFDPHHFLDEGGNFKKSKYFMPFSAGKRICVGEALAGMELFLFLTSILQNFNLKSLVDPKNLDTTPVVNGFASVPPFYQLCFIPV
T7 sequence (P33261 whole entry): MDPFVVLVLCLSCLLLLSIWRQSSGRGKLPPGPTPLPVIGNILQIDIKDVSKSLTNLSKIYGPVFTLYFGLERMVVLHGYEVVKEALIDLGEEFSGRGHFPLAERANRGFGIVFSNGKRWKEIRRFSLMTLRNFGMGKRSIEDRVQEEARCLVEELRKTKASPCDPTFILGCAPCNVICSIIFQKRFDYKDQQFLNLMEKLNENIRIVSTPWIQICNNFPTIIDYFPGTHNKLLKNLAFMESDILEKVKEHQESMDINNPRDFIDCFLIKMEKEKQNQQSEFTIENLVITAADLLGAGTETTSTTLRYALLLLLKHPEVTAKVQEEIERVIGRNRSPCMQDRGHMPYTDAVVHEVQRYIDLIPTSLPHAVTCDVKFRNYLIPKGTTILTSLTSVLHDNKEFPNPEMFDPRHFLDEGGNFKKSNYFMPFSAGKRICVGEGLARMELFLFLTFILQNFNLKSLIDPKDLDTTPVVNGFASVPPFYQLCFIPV

On to `CCCCOC(=O)NS(=O)(=O)c1sc(CC(C)C)cc1-c1ccc(Cn2ccnc2)cc1` [Example C21, N-butyloxycarbonyl-3-(4-imidazol-1-ylmethylphenyl)-5-isobutylthiophene-2-sulfon-amide, reference compound], for which the inhibition at 10 µM amounted to 90.9% at CYP1A; 48.8% on CYP2B6; 80.4% at CYP2C8; 81.2% at CYP2D6; 95.2% on CYP3A4; 94.2% in the data set with CYP3A4&5.
In the case of `CCCCOC(=O)NS(=O)(=O)c1sc(CC(C)C)cc1-c1ccc(Cn2ccnc2C)cc1` [Example 1, Butyl (5-isobutyl-3-(4-((2-methyl-1H-imidazol-1-yl)methyl)phenyl)thiophen-2-yl)sulfonyl-carbamate], the IC50 in data set [1] is 0.53 nM. Besides, the inhibition at 10 µM on CYP1A was 2.5%; at CYP2B6, 17.6%; on CYP2C19, 43%; on CYP2C8 it was 37.5%; on CYP2C9 it was 58.9%; at CYP2D6, 22.4%. Also, the inhibition at 10 µM was approximately 0% at CYP3A4 and 13.5% in the data set on CYP3A4&5.

What is called IC50 is the concentration that inhibits the measured activity by half.
